Strand notation (5' to 3'): a small letter for the sugar, then the base; units joined by * are phosphorothioate-linked, units joined directly phosphodiester-linked; [ ] holds rarer units or linkages, { } end groups; capitals alone tell only the bases. e = 2'-O-(2-methoxyethyl) (MOE); [5mC] = 5-methylcytosine; d = 2'-deoxy (DNA)

The values that follow come from patent publication US20030144225A1, “Antisense modulation of macrophage inflammatory protein 3-alpha expression” (priority 2001, published 2003).

The test system of this data set is human macrophage inflammatory protein 3-alpha mRNA. Description: Antisense inhibition of human macrophage inflammatory protein 3-alpha mRNA levels, quantitative real-time PCR (Table 1 screen). The class given is cell-based. To be noted: averages from two experiments, oligonucleotide concentration not given.
Turning to “150677 (antisense eT*eA*e[5mC]*e[5mC]*e[5mC]*dA*dG*dT*dT*d[5mC]*dT*dT*dT*dG*dG*eG*eA*eG*eT*eG) [compound 150677]”, the “% INHIB (inhibition of human macrophage inflammatory protein 3-alpha mRNA levels)” value (“% INHIB” for short) came to 0%. With “150678 (antisense eA*eG*eT*eG*eT*dT*dG*dA*dG*dT*dA*d[5mC]*d[5mC]*d[5mC]*dA*eG*eT*eT*e[5mC]*eT) [compound 150678]” the figure was 34%; with “150679 (antisense eA*eG*eA*eT*e[5mC]*dT*dG*d[5mC]*dT*d[5mC]*dA*dG*dT*dG*dT*eT*eG*eA*eG*eT) [compound 150679]”, 16%; with “150681 (antisense eT*eG*eG*eT*eT*dT*dT*dT*dA*dG*d[5mC]*dT*d[5mC]*dA*dA*eA*eG*eA*eA*e[5mC]) [compound 150681]”, 22%.

For the substance “150683 (antisense eA*eA*eG*eT*eT*dG*d[5mC]*dT*dT*dG*d[5mC]*dT*dG*d[5mC]*dT*eT*e[5mC]*eT*eG*eA) [compound 150683]”, the “% INHIB” value worked out at 15%. With “150684 (antisense e[5mC]*eA*eG*e[5mC]*eA*dG*dT*d[5mC]*dA*dA*dA*dG*dT*dT*dG*e[5mC]*eT*eT*eG*e[5mC]) [compound 150684]” the figure was 15%. With “150685 (antisense eG*eT*eG*eT*eG*dA*dA*dA*dG*dA*dT*dG*dA*dT*dA*eG*e[5mC]*eA*eT*eT) [compound 150685]” the figure was 0%. Then “150686 (antisense eA*eT*eT*e[5mC]*e[5mC]*dA*dG*dA*dA*dA*dA*dG*d[5mC]*d[5mC]*dA*e[5mC]*eA*eG*eT*eT) [compound 150686]”, with 1%. “150694 (antisense eA*eT*eG*eT*eG*dA*dT*dG*d[5mC]*dT*dT*dA*dA*dA*d[5mC]*eA*eA*eA*eG*e[5mC]) [compound 150694]”: the “% INHIB” value amounted to 30%. With “150695 (antisense e[5mC]*eA*e[5mC]*eA*eG*dA*dA*dA*dA*d[5mC]*d[5mC]*dT*dA*d[5mC]*dA*eG*e[5mC]*eT*eA*eT) [compound 150695]” the figure was 11%. Then “150696 (antisense eG*e[5mC]*eA*e[5mC]*eT*dA*dA*dA*d[5mC]*d[5mC]*dA*dA*dA*dA*dT*eA*eG*e[5mC]*eT*eT) [compound 150696]”, with 27%; and “150697 (antisense eG*e[5mC]*eA*eA*eG*dA*dA*dA*dG*dT*d[5mC]*d[5mC]*dA*dT*dA*eT*eA*eA*eT*e[5mC]) [compound 150697]”, with 18%. Then “150698 (antisense eG*e[5mC]*eA*eA*eT*dT*dA*d[5mC]*dA*dA*d[5mC]*dA*dA*dT*dT*eT*eA*eG*eG*eA) [compound 150698]”, with 21%; and “ISIS 150678: 2′-MOE gapmer, phosphorothioate, 5-methylcytidines; AGTGTTGAGTACCCAGTTCT (antisense eA*eG*eT*eG*eT*dT*dG*dA*dG*dT*dA*d[5mC]*d[5mC]*d[5mC]*dA*eG*eT*eT*e[5mC]*eT)”, with “at least 20%”.

On to “ISIS 150680: 2′-MOE gapmer, phosphorothioate, 5-methylcytidines; CTCAAAGAACAGATCTGCTC (antisense e[5mC]*eT*e[5mC]*eA*eA*dA*dG*dA*dA*d[5mC]*dA*dG*dA*dT*d[5mC]*eT*eG*e[5mC]*eT*e[5mC])”, for which the “% INHIB” value was “at least 20%”. Then “ISIS 150681: 2′-MOE gapmer, phosphorothioate, 5-methylcytidines; TGGTTTTTAGCTCAAAGAAC (antisense eT*eG*eG*eT*eT*dT*dT*dT*dA*dG*d[5mC]*dT*d[5mC]*dA*dA*eA*eG*eA*eA*e[5mC])”, with “at least 20%”; and “ISIS 150682: 2′-MOE gapmer, phosphorothioate, 5-methylcytidines; GTACAGCACATGGTTTTAG”, with “at least 20%”. Then “ISIS 150687: 2′-MOE gapmer, phosphorothioate, 5-methylcytidines; GTCCAATTCCATTCCAGAAA (antisense eG*eT*e[5mC]*e[5mC]*eA*dA*dT*dT*d[5mC]*d[5mC]*dA*dT*dT*d[5mC]*d[5mC]*eA*eG*eA*eA*eA)”, with “at least 20%”; and “ISIS 150688: 2′-MOE gapmer, phosphorothioate, 5-methylcytidines; CTTGGGCTATGTCCAATTCC (antisense e[5mC]*eT*eT*eG*eG*dG*d[5mC]*dT*dA*dT*dG*dT*d[5mC]*d[5mC]*dA*eA*eT*eT*e[5mC]*e[5mC])”, with “at least 20%”. With “ISIS 150689: 2′-MOE gapmer, phosphorothioate, 5-methylcytidines; CAAGGTTCTTTCTGTTCTTG (antisense e[5mC]*eA*eA*eG*eG*dT*dT*d[5mC]*dT*dT*dT*d[5mC]*dT*dG*dT*eT*e[5mC]*eT*eT*eG)” the entry was “at least 20%”. Consider “ISIS 150690: 2′-MOE gapmer, phosphorothioate, 5-methylcytidines; CTGAAACCTCCAACCCCAGC”, for which the “% INHIB” value is reported as “at least 20%”. Then “ISIS 150692: 2′-MOE gapmer, phosphorothioate, 5-methylcytidines; GCAATATGAATCAACTTCAT (antisense eG*e[5mC]*eA*eA*eT*dA*dT*dG*dA*dA*dT*d[5mC]*dA*dA*d[5mC]*eT*eT*e[5mC]*eA*eT)”, with “at least 20%”; and “ISIS 150693: 2′-MOE gapmer, phosphorothioate, 5-methylcytidines; ACTATGATGCAATATGAATC (antisense eA*e[5mC]*eT*eA*eT*dG*dA*dT*dG*d[5mC]*dA*dA*dT*dA*dT*eG*eA*eA*eT*e[5mC])”, with “at least 20%”; and “ISIS 150694: 2′-MOE gapmer, phosphorothioate, 5-methylcytidines; ATGTGATGCTTAAACAAAGC (antisense eA*eT*eG*eT*eG*dA*dT*dG*d[5mC]*dT*dT*dA*dA*dA*d[5mC]*eA*eA*eA*eG*e[5mC])”, with “at least 20%”. With “ISIS 150696: 2′-MOE gapmer, phosphorothioate, 5-methylcytidines; GCACTAAACCAAAATAGCTT (antisense eG*e[5mC]*eA*e[5mC]*eT*dA*dA*dA*d[5mC]*d[5mC]*dA*dA*dA*dA*dT*eA*eG*e[5mC]*eT*eT)” the entry was “at least 20%”; with “ISIS 150698: 2′-MOE gapmer, phosphorothioate, 5-methylcytidines; GCAATTACAACAATTTAGGA (antisense eG*e[5mC]*eA*eA*eT*dT*dA*d[5mC]*dA*dA*d[5mC]*dA*dA*dT*dT*eT*eA*eG*eG*eA)”, “at least 20%”.
